Data published in publication PMC11457037 (Journal of medicinal chemistry, 2023).

Assays:
[1] = target: T1, EV-D68 2A^pro (Enterovirus D68, UniProt A0A097BW19); experiment: FRET-based enzymatic assay; assay type: biochemical
[2] = target: T1, EV-D68 2A^pro; experiment: Enzyme kinetic studies; assay type: biochemical; settings: from fitting of kinetic curves
[3] = system: EV-D68; settings: respiratory and neurological disease mouse models; cited from earlier work
[4] = system: EV-D68 US/MO/14-18947; experiment: CPE assay with EV-D68 US/MO/14-18947 in R.D. cells; assay type: cell-based, Enterovirus D68; settings: for EC50: Enterovirus D, EVD68, RD, read-out: Antiviral EC50

Row | SMILES | enzymatic inhibition, comparison in words [1] | also measured
1 | CCC[C@H](NC(=O)[C@@H]1[C@H]2CCC[C@H]2CN1C(=O)[C@@H](NC(=O)Cc1ccccc1)C(C)(C)C)C(=O)C(=O)NC1CC1 [Jun8681, (1S,3aR,6aS)-N-((S)-1-(cyclopropylamino)-1,2-dioxohexan-3-yl)-2-((S)-3,3-dimethyl-2-(2-phenylacetamido)butanoyl)octahydrocyclopenta[c]pyrrole-1-carboxamide] | reduced enzymatic inhibition and antiviral activity compared to telaprevir | –
2 | CC(C)(C)[C@H](NC(=O)CC12CC3CC(CC(C3)C1)C2)C(=O)N1C[C@@H]2CCC[C@@H]2[C@H]1C(=O)N[C@@H](Cc1c[nH]c2ccccc12)C(=O)C(=O)NC1CC1 [Jun11862, (1S,3aR,6aS)-2-((S)-2-(2-((3S,5S,7S)-adamantan-1-yl)acetamido)-3,3-dimethylbutanoyl)-N-((S)-4-(cyclopropylamino)-1-(1H-indol-3-yl)-3,4-dioxobutan-2-yl)octahydrocyclopenta[c]pyrrole-1-carboxamide] | comparable enzymatic inhibition and antiviral activity as Jun11385 | –
3 | CC(C)(C)[C@H](NC(=O)CC12CC3CC(CC(C3)C1)C2)C(=O)N1C[C@@H]2CCC[C@@H]2[C@H]1C(=O)N[C@H](C(=O)C(=O)NC1CC1)C1CCCC1 [Jun11808, (1S,3aR,6aS)-2-((S)-2-(2-((3S,5S,7S)-adamantan-1-yl)acetamido)-3,3-dimethylbutanoyl)-N-((S)-1-cyclopentyl-3-(cyclopropylamino)-2,3-dioxopropyl)octahydrocyclopenta[c]pyrrole-1-carboxamide] | comparable enzymatic inhibition and antiviral activity as Jun8861 | Mode of inhibition of EV-D68 2A^pro [2]: reversible binding
4 | CCOC(=O)/C=C/[C@H](C[C@@H]1CCNC1=O)NC(=O)[C@@H](CC(=O)[C@@H](NC(=O)c1cc(C)on1)C(C)C)Cc1ccc(F)cc1 [rupintrivir] | – | therapeutic efficacy in EV-D68 mouse models [3]: none of these antivirals showed therapeutic efficacy
5 | CCC[C@H](NC(=O)[C@@H]1[C@H]2CCC[C@H]2CN1C(=O)[C@@H](NC(=O)CC1CCC(F)(F)CC1)C(C)(C)C)C(=O)C(=O)NC1CC1 [Jun975, (1S,3aR,6aS)-N-((S)-1-(cyclopropylamino)-1,2-dioxohexan-3-yl)-2-((S)-2-(2-(4,4-difluorocyclohexyl)acetamido)-3,3-dimethylbutanoyl)octahydrocyclopenta[c]pyrrole-1-carboxamide] | – | EC50 [4]: 160 to 750 nM
6 | CC(C)(C)[C@H](NC(=O)CC12CC3CC(CC(C3)C1)C2)C(=O)N1C[C@@H]2CCC[C@@H]2[C@H]1C(=O)N[C@H](C=O)Cc1ccc(F)cc1 [Jun11707, (1S,3aR,6aS)-2-((S)-2-(2-((3S,5S,7S)-adamantan-1-yl)acetamido)-3,3-dimethylbutanoyl)-N-((S)-1-(4-fluorophenyl)-3-oxopropan-2-yl)octahydrocyclopenta[c]pyrrole-1-carboxamide] | – | Mode of inhibition of EV-D68 2A^pro [2]: reversible binding
7 | CC(C)(C)[C@H](NC(=O)CC12CC3CC(CC(C3)C1)C2)C(=O)N1C[C@@H]2CCC[C@@H]2[C@H]1C(=O)NC1(C(=O)C(=O)NC2CC2)CCCCC1 [Jun11805, (1S,3aR,6aS)-2-((S)-2-(2-((3S,5S,7S)-adamantan-1-yl)acetamido)-3,3-dimethylbutanoyl)-N-(1-(2-(cyclopropylamino)-2-oxoacetyl)cyclohexyl)octahydrocyclopenta[c]pyrrole-1-carboxamide] | less active compared to Jun11762 | –
8 | NC(=O)c1ncn([C@@H]2O[C@H](CO)[C@@H](O)[C@H]2O)n1 [ribavirin] | – | therapeutic efficacy in EV-D68 mouse models [3]: none of these antivirals showed therapeutic efficacy
9 | CCC[C@H](NC(=O)[C@@H]1[C@H]2CCC[C@H]2CN1C(=O)[C@@H](NC(=O)NC12CC3CC(CC(C3)C1)C2)C(C)(C)C)C(=O)C(=O)NC1CC1 [Jun1023, (1S)-2-((S)-2-(3-((3R,5R,7R)-adamantan-1-yl)ureido)-3,3-dimethylbutanoyl)-N-((S)-1-(cyclopropylamino)-1,2-dioxohexan-3-yl)octahydrocyclopenta[c]pyrrole-1-carboxamide] | reduced enzymatic inhibition | –
10 | COC[C@H](NC(=O)[C@@H]1[C@H]2CCC[C@H]2CN1C(=O)[C@@H](NC(=O)CC12CC3CC(CC(C3)C1)C2)C(C)(C)C)C(=O)C(=O)NC1CC1 [Jun11672, (1S,3aR,6aS)-2-((S)-2-(2-((3S,5S,7S)-adamantan-1-yl)acetamido)-3,3-dimethylbutanoyl)-N-((S)-4-(cyclopropylamino)-1-methoxy-3,4-dioxobutan-2-yl)octahydrocyclopenta[c]pyrrole-1-carboxamide] | – | antiviral activity, comparison in words ([4]; CPE assay EV-D68 US/MO/14-18947): not active as Jun8861
11 | CCOC(=O)c1ccc(OCCC2CCN(c3ccc(C)nn3)CC2)cc1 [pirodavir] | – | therapeutic efficacy in EV-D68 mouse models [3]: none of these antivirals showed therapeutic efficacy
12 | CCC[C@H](NC(=O)[C@@H]1[C@H]2CCC[C@H]2CN1C(=O)[C@@H](NC(=O)OCc1ccccc1)C(C)(C)C)C(=O)C(=O)NC1CC1 [Jun7426, Benzyl ((S)-1-((1S,3aR,6aS)-1-(((S)-1-(cyclopropylamino)-1,2-dioxohexan-3-yl)carbamoyl)hexahydrocyclopenta[c]pyrrol-2(1H)-yl)-3,3-dimethyl-1-oxobutan-2-yl)carbamate] | reduced enzymatic inhibition and antiviral activity compared to telaprevir | –
13 | Cc1cc(CCCOc2c(C)cc(-c3noc(C(F)(F)F)n3)cc2C)on1 [pleconaril] | – | therapeutic efficacy in EV-D68 mouse models [3]: none of these antivirals showed therapeutic efficacy
14 | CC(C)(C)[C@H](NC(=O)CC12CC3CC(CC(C3)C1)C2)C(=O)N1C[C@@H]2CCC[C@@H]2[C@H]1C(=O)N[C@H](C(=O)C(=O)NC1CC1)c1ccccc1 [Jun11817, (1S,3aR,6aS)-2-((S)-2-(2-((3S,5S,7S)-adamantan-1-yl)acetamido)-3,3-dimethylbutanoyl)-N-((S)-3-(cyclopropylamino)-2,3-dioxo-1-phenylpropyl)octahydrocyclopenta[c]pyrrole-1-carboxamide] | less active | –
15 | CC(C)(C)[C@H](NC(=O)CC12CC3CC(CC(C3)C1)C2)C(=O)N1C[C@@H]2CCC[C@@H]2[C@H]1C(=O)N[C@@H](Cc1ccc(F)cc1)C(=O)C(=O)NC1CC1 [Jun11763, (1S,3aR,6aS)-2-((S)-2-(2-((3S,5S,7S)-adamantan-1-yl)acetamido)-3,3-dimethylbutanoyl)-N-((S)-4-(cyclopropylamino)-1-(4-fluorophenyl)-3,4-dioxobutan-2-yl)octahydrocyclo-penta[c]pyrrole-1-carboxamide] | comparable enzymatic inhibition and antiviral activity as Jun11385 | –
16 | CCC[C@H](NC(=O)[C@@H]1[C@H]2CCC[C@H]2CN1C(=O)[C@@H](NC(=O)CC1CCCC1)C(C)(C)C)C(=O)C(=O)NC1CC1 [Jun971, (1S,3aR,6aS)-2-((S)-2-(2-cyclopentylacetamido)-3,3-dimethylbutanoyl)-N-((S)-1-(cyclopropylamino)-1,2-dioxohexan-3-yl)octahydrocyclopenta[c]pyrrole-1-carboxamide] | – | EC50 [4]: 160 to 750 nM
17 | CCC[C@H](NC(=O)[C@@H]1[C@H]2CCC[C@H]2CN1C(=O)[C@@H](NC(=O)CC1CCCCC1)C(C)(C)C)C(=O)C(=O)NC1CC1 [Jun8814, (1S,3aR,6aS)-2-((S)-2-(2-cyclohexylacetamido)-3,3-dimethylbutanoyl)-N-((S)-1-(cyclopropylamino)-1,2-dioxohexan-3-yl)octahydrocyclopenta[c]pyrrole-1-carboxamide] | – | EC50 [4]: 160 to 750 nM
18 | CC(C)S(=O)(=O)n1c(N)nc2ccc(/C(=N/O)c3ccccc3)cc21 [enviroxime] | – | therapeutic efficacy in EV-D68 mouse models [3]: none of these antivirals showed therapeutic efficacy
19 | CC(C)[C@H](NC(=O)[C@@H]1[C@H]2CCC[C@H]2CN1C(=O)[C@@H](NC(=O)CC12CC3CC(CC(C3)C1)C2)C(C)(C)C)C(=O)C(=O)NC1CC1 [Jun11718, (1S,3aR,6aS)-2-((S)-2-(2-((3S,5S,7S)-adamantan-1-yl)acetamido)-3,3-dimethylbutanoyl)-N-((S)-1-(cyclopropylamino)-4-methyl-1,2-dioxopentan-3-yl)octahydrocyclopenta[c]pyrrole-1-carboxamide] | comparable enzymatic inhibition and antiviral activity as Jun8861 | –
20 | CC(C)(C)[C@H](NC(=O)CC12CC3CC(CC(C3)C1)C2)C(=O)N1C[C@@H]2CCC[C@@H]2[C@H]1C(=O)NC1(C(=O)C(=O)NC2CC2)CCC1 [Jun11806, (1S,3aR,6aS)-2-((S)-2-(2-((3S,5S,7S)-adamantan-1-yl)acetamido)-3,3-dimethylbutanoyl)-N-(1-(2-(cyclopropylamino)-2 oxoacetyl)cyclobutyl)octahydrocyclopenta[c]pyrrole-1-carboxamide] | less active compared to Jun11762 | –
21 | CC(C)(C)[C@H](NC(=O)CC12CC3CC(CC(C3)C1)C2)C(=O)N1C[C@@H]2CCC[C@@H]2[C@H]1C(=O)N[C@H](C(=O)C(=O)NC1CC1)c1ccc(F)cc1 [Jun11861, (1S,3aR,6aS)-2-((S)-2-(2-((3S,5S,7S)-adamantan-1-yl)acetamido)-3,3-dimethylbutanoyl)-N-((S)-3-(cyclopropylamino)-1-(4-fluorophenyl)-2,3-dioxopropyl)octahydrocyclopenta[c]pyrrole-1-carboxamide] | less active | –
22 | CCC[C@H](NC(=O)[C@@H]1[C@H]2CCC[C@H]2CN1C(=O)[C@@H](NC(=O)/C=C/c1ccccc1)C(C)(C)C)C(=O)C(=O)NC1CC1 [Jun8813, (1S,3aR,6aS)-2-((S)-2-cinnamamido-3,3-dimethylbutanoyl)-N-((S)-1-(cyclopropylamino)-1,2-dioxohexan-3-yl)octahydrocyclopenta[c]pyrrole-1-carboxamide] | reduced enzymatic inhibition and antiviral activity compared to telaprevir | –
